Experimental findings from patent US12133899B2 (priority 2020, dated 2024) are described below.

A short description of data set [1]: in vivo. The settings on record: rat; for drop of concentration in liver / drop of concentration in plasma: 2 weeks. Type of data set: in vivo, rats. On the procedure:
A single dose PK study of ALC-0315 and […] following intravenous (IV) bolus injection of a nanparticle formulation in rats was conducted to assess the PK and metabolism of lipid excipients ALC-0315 and ALC-0159.

Data set [2] is classed as in vitro ADME, mice, rats, monkeys, humans. The settings on record: blood, microsomes, S9, hepatocytes; rat samples. On the procedure:
In vitro metabolism of ALC-0315 and ALC-0159 was evaluated in blood, liver microsomes, S9 fractions, and hepatocytes from mice, rats, monkeys, and humans. In vivo metabolism was examined in rat plasma, urine, faeces, and liver samples from the PK study. […] ALC-0315 and ALC-0159 are apparently metabolised by hydrolytic metabolism of the ester and amide functionalities, respectively, and this hydrolytic metabolism is observed across the species evaluated.

The test system of data set [3] is luciferase expression. Type of data set: in vivo, mice. The settings on record: ALC-0315/DSPC/CHOL/ALC-0159 prototype; IV.

As for `CCCCCCCCCCCCCCN(CCCCCCCCCCCCCC)C(=O)COCCOCCOCCOCCOCCOCCOCCOCCOCCOCCOCCOCCOCCOCCOCCOCCOCCOCCOCCOCCOCCOCCOCCOCCOCCOCCOCCOCCOCCOCCOCCOCCOCCOCCOCCOCCOCCOCCOCCOCCOCCOCCOCCOCCOCCOC` [ALC-0159, 2-[(polyethylene glycol)-2000]-N,N-ditetradecylacetamide], in data set [1] (in vivo, IV bolus, read-out: apparent terminal t½ in plasma and liver), the half-life fell in the range of 48 to 72 h. The “eliminated unchanged in faeces” value in data set [1] is 50%. Further, in data set [1] (IV bolus), the “drop of concentration in liver” value is reported as above 250 fold and the “drop of concentration in plasma” value is on record as “approximately 8000 fold”. In addition, the “metabolism in vitro and in vivo” value in data set [2] was “relatively slowly”.
On to “((4-hydroxybutyl)azanediyl)bis(hexane-6,1-diyl)bis(2-hexyldecanoate) [ALC-0315]”, for which the “in vivo potency of Luc RNA LNP vs internal benchmark ALC-0218” value in data set [3] is recorded as “improved potency”. In addition, the “unchanged material in urine or faeces” value in data set [1] is “little to no unchanged material was detected”. In addition, in data set [1] (IV bolus), the “apparent terminal t½ in plasma and liver” value fell in the range of 140 to 190 h; the “drop of concentration in liver” value was around 4 fold; the “drop of concentration in plasma” value is “approximately 7000 fold”. Moreover, the “metabolism in vitro and in vivo” value in data set [2] is reported as “relatively slowly”.
